pIC50: −log10 of the molar value.
Experiments:
Assay type in all cases: functional, cell-based
HGC-27 = experiment: Antiproliferative activity against human HGC-27 cells assessed as inhibition of cell growth measured after 72 hrs by SRB assay; conditions: HGC-27, 72 h
PC-3 = experiment: Antiproliferative activity against human PC-3 cells assessed as inhibition of cell growth measured after 72 hrs by SRB assay; conditions: PC-3, 72 h
SW1990 = experiment: Antiproliferative activity against human SW1990 cells assessed as inhibition of cell growth measured after 72 hrs by SRB assay; conditions: SW1990, 72 h
TE-1 = experiment: Antiproliferative activity against human TE-1 cells assessed as inhibition of cell growth measured after 72 hrs by SRB assay; conditions: TE-1, 72 h
MGC-803 = experiment: Antiproliferative activity against human MGC-803 cells assessed as inhibition of cell growth measured after 72 hrs by SRB assay; conditions: MGC-803, 72 h

Compound | pIC50 (HGC-27) | pIC50 (PC-3) | pIC50 (SW1990) | pIC50 (TE-1) | pIC50 (MGC-803)
C=C1C(=O)[C@]23[C@H](O)[C@H]1C[C@H](O)[C@H]2[C@]12CCCC(C)(C)[C@H]1C[C@H]3O[C@H]2OCCc1cn(CCCCCCN2C(=O)c3cccc4c(N5CCCCC5)ccc(c34)C2=O)nn1 | 5.51 | 6.10 | 5.85 | 5.35 | 5.80
C=C1C(=O)[C@]23[C@H](O)[C@H]1C[C@H](O)[C@H]2[C@]12CCCC(C)(C)[C@H]1C[C@H]3O[C@H]2OCCCCc1cn(CCOCCOCCOCCN2C(=O)c3cccc4c(N5CCCCC5)ccc(c34)C2=O)nn1 | 5.60 | 5.98 | 5.36 | 5.61 | 5.50
C#CCCCCO[C@@H]1O[C@@H]2C[C@@H]3C(C)(C)CCC[C@]13[C@@H]1[C@@H](O)C[C@H]3C(=C)C(=O)[C@@]21[C@@H]3O | 5.52 | 5.36 | 5.48 | 5.25 | 5.59
C=C1C(=O)[C@]23[C@H](O)[C@H]1C[C@H](O)[C@H]2[C@]12CCCC(C)(C)[C@H]1C[C@H]3O[C@H]2OCCCCc1cn(CCOCCOCCN2C(=O)c3cccc4c(N5CCCCC5)ccc(c34)C2=O)nn1 | 5.76 | 5.94 | 5.67 | 5.65 | 5.53
C=C1C(=O)[C@]23[C@H](O)[C@H]1C[C@H](O)[C@H]2[C@]12CCCC(C)(C)[C@H]1C[C@H]3O[C@H]2OCCCc1cn(CCCCN2C(=O)c3cccc4c(N5CCCCC5)ccc(c34)C2=O)nn1 | 5.65 | 5.91 | 6.06 | 5.68 | 5.90
[N-]=[N+]=NCCCCN1C(=O)c2cccc3c(N4CCCCC4)ccc(c23)C1=O | < 4.49 | < 4.49 | < 4.49 | < 4.49 | < 4.49
C=C1C(=O)[C@]23[C@H](O)[C@H]1C[C@H](O)[C@H]2[C@]12CCCC(C)(C)[C@H]1C[C@H]3O[C@H]2OCCc1cn(CCOCCOCCN2C(=O)c3cccc4c(N5CCCCC5)ccc(c34)C2=O)nn1 | 5.45 | 6.01 | 5.68 | 5.74 | 5.48
C=C1C(=O)[C@]23[C@H](O)[C@H]1C[C@H](O)[C@H]2[C@]12CCCC(C)(C)[C@H]1C[C@H]3O[C@H]2OCCCCc1cn(CCN2C(=O)c3cccc4c(N5CCCCC5)ccc(c34)C2=O)nn1 | 5.21 | 5.84 | 5.86 | 5.65 | 5.92
C=C1C(=O)[C@]23[C@H](O)[C@H]1C[C@H](O)[C@H]2[C@]12CCCC(C)(C)[C@H]1C[C@H]3O[C@H]2OCCCCCCc1cn(CCOCCOCCN2C(=O)c3cccc4c(N5CCCCC5)ccc(c34)C2=O)nn1 | 5.73 | 6.01 | 5.55 | 5.82 | 5.52
C=C1C(=O)[C@]23[C@H](O)[C@H]1C[C@H](O)[C@H]2[C@]12CCCC(C)(C)[C@H]1C[C@H]3O[C@H]2OCCCCc1cn(CCCCCN2C(=O)c3cccc4c(N5CCCCC5)ccc(c34)C2=O)nn1 | 5.71 | 5.90 | 5.57 | 5.20 | 5.51
[N-]=[N+]=NCCN1C(=O)c2cccc3c(N4CCCCC4)ccc(c23)C1=O | < 4.49 | < 4.49 | < 4.49 | < 4.49 | < 4.49
C#CCCCO[C@@H]1O[C@@H]2C[C@@H]3C(C)(C)CCC[C@]13[C@@H]1[C@@H](O)C[C@H]3C(=C)C(=O)[C@@]21[C@@H]3O | 5.57 | 5.27 | 5.49 | 5.37 | 5.61
C#CCCO[C@@H]1O[C@@H]2C[C@@H]3C(C)(C)CCC[C@]13[C@@H]1[C@@H](O)C[C@H]3C(=C)C(=O)[C@@]21[C@@H]3O | 5.19 | 5.37 | 5.37 | 5.13 | 5.20
C=C1C(=O)[C@]23[C@H](O)[C@H]1C[C@H](O)[C@H]2[C@]12CCCC(C)(C)[C@H]1C[C@H]3O[C@H]2OCCCCCc1cn(CCOCCN2C(=O)c3cccc4c(N5CCCCC5)ccc(c34)C2=O)nn1 | 5.79 | 6.06 | 5.47 | 5.63 | 5.56
[N-]=[N+]=NCCCN1C(=O)c2cccc3c(N4CCCCC4)ccc(c23)C1=O | < 4.49 | < 4.49 | < 4.49 | < 4.49 | < 4.49

— ChEMBL document CHEMBL5046249, “Synthesis, biological evaluation and cellular localization study of fluorescent derivatives of Jiyuan Oridonin A” (Eur J Med Chem, 2022)
